Compound: Cc1ccc(C(=O)Nc2ccc(CN3CCN(C)CC3)c(C(F)(F)F)c2)cc1C#Cc1cnc2cccnn12 [Ponatinib] + CCNC(=O)c1noc(-c2cc(C(C)C)c(O)cc2O)c1-c1ccc(CN2CCOCC2)cc1 [Luminespib] (partner 0.01 µM)
Test: relative viability (nuclei count vs DMSO), 5 days (fraction); higher = more cells survive
Procedure, shortened: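 Values are medians from duplicate plates. Each reflects relative viability, defined as the nuclei count of treated wells over that of vehicle wells. Lung cancer cell lines in 1536-well plates were pin-tool dosed one day after seeding with one drug alone or with a fixed anchor-drug dose plus five library-drug doses (not always all listed) in √10 steps, then fixed, stained and imaged at 4× after 5 days.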

Row | Cell Line | relative viability (first compound 0.002 µM) | relative viability (first compound 0.006325 µM) | relative viability (first compound 0.06325 µM) | relative viability (first compound 0.2 µM)
1 | 201T | 1.1 | 1.07 | 1.08 | 0.966
2 | HCC-44 | 0.96 | 0.976 | 1.22 | 1.01
3 | NCI-H647 | 0.136 | 0.225 | 0.158 | 0.234
4 | H3255 | 0.862 | 0.887 | 0.805 | 0.929
5 | NCI-H650 | 0.807 | 0.783 | 0.958 | 0.775
6 | NCI-H2023 | 0.749 | 0.749 | 0.748 | 0.543
7 | NCI-H23 | – | 0.22 | 0.211 | 0.196
8 | NCI-H2170 | 0.671 | 0.697 | 0.665 | 0.646
9 | NCI-H1944 | 0.666 | 0.684 | 0.833 | 0.743
10 | NCI-H596 | 1.06 | 1.07 | 1.01 | 0.686
11 | NCI-H520 | 0.207 | 0.209 | 0.19 | 0.223
12 | EKVX | 0.941 | 0.959 | 0.954 | 0.871
13 | SK-MES-1 | 0.761 | 0.89 | 1.01 | 0.745
14 | EPLC-272H | 0.323 | 0.255 | 0.521 | 0.199
15 | NCI-H1563 | 0.48 | 0.535 | 0.595 | 0.476
16 | NCI-H1793 | 0.479 | 0.212 | 0.147 | 0.184
17 | NCI-H2126 | 0.874 | 0.955 | 1.04 | 0.873
18 | LXF-289 | 0.598 | 0.661 | 0.774 | 0.641

Row | Cell Line | relative viability (first compound 0.002 µM) | relative viability (first compound 0.006325 µM) | relative viability (first compound 0.06325 µM) | relative viability (first compound 0.2 µM)
19 | NCI-H2009 | 0.975 | 0.967 | 1.02 | 0.918
20 | NCI-H522 | 1.17 | 1.3 | 1.18 | 1.09
21 | NCI-H3122 | 0.113 | 0.0854 | 0.128 | 0.109
22 | NCI-H1755 | 0.249 | 0.696 | 0.561 | 0.359
23 | LOU-NH91 | 0.317 | 0.318 | 0.393 | 0.404
24 | NCI-H322M | 1 | 1 | 0.843 | 0.716
25 | HCC-827 | 0.476 | 0.914 | 0.446 | 0.589
26 | SW 1573 | 0.266 | 0.321 | 0.25 | 0.259
27 | NCI-H1975 | 0.248 | 0.24 | 0.289 | 0.165
28 | NCI-H1651 | 0.986 | 0.864 | 0.915 | 1.05
29 | NCI-H460 | 0.0243 | 0.0378 | 0.0319 | 0.0324
30 | LCLC-103H | 0.928 | 0.974 | 0.908 | 0.733
31 | LCLC-97TM1 | 0.677 | 0.704 | 0.647 | 0.439
32 | NCI-H838 | 0.324 | 0.324 | 0.298 | 0.3
33 | NCI-H1355 | 0.688 | 0.667 | 0.874 | 0.709
34 | HOP-62 | 0.87 | 0.946 | 0.835 | 0.781
35 | NCI-H2085 | 0.459 | 0.459 | 0.446 | 0.432
36 | SW 900 | 0.179 | 0.19 | 0.243 | 0.204

Reference: the supplement of paper PMC10307832
